Eight molecules from patent US20040067894A1, “Preparation having antioxidant properties” (Merck Patent GmbH, priority 2002, published 2004) can be followed below.

The test is described as follows: DPPH assay (free-radical scavenging, antioxidant activity). To be noted: for AE (×10^−3): anti-free-radical efficiency, obtained from EC50 and TEC50; for TEC50: reaction time necessary to achieve the EC50 value. Type of test: biochemical. Here is the method:
2,2-Diphenyl-1-picrylhydrazyl is a free radical which is stable in solution. The unpaired electron results in a strong absorption band at 515 nm, and the solution has a dark violet color. In the presence of a free-radical scavenger, the electron is paired, the absorption disappears, and the decoloration proceeds stoichiometrically taking into account the electrons taken up. The absorbance is measured in a photometer. The anti-free-radical property of the substance to be tested is determined by measuring the concentration at which 50% of the 2,2-diphenyl-1-picrylhydrazyl employed has reacted with the free-radical scavenger. This concentration is expressed as EC50, a value which can be considered to be a property of the substance under the given measurement conditions. The substance investigated is compared with a standard (for example tocopherol). The EC50 value here is a measure of the capacity of the respective compound to scavenge free radicals. The lower the EC50 value, the higher the capacity to scavenge free radicals.
A further important aspect for the action of the antioxidants is the time in which this EC50 value is reached. This time, measured in minutes, gives the TEC50 value, which allows a conclusion to be drawn on the rate at which these antioxidants scavenge free radicals.
The antioxidant activity of the compounds according to the invention is determined compared with the activity of quercetin (3,5,7,3′,4′-pentahydroxyflavone) and other conventional antioxidants. The antioxidant activity here is taken to mean the ability to function as hydrogen or electron donor and thus to be able to scavenge free radicals. DPPH assay is used for the determination.
A stock solution of 2,2-diphenyl-1-picrylhydrazyl (DPPH) in ethanol is prepared (0.025 g/l of DPPH-free radicals). Aliquots of this solution are mixed with various concentrations of the compound to be tested. The absorbance is in each case measured at 515 nm, 25° C. and 1 cm.
The lower this value, the higher the corresponding antioxidant activity.
The reaction time necessary to achieve this value is indicated in the value TEC50 (in minutes).
The anti-free-radical efficiency (AE) is obtained from this in accordance with the following relationship: [formula]
A higher AE value here indicates a higher activity against free radicals.
A general note: The DPPH test is a chemical assay of radical scavenging.

As to `O=c1cc(-c2ccccc2)oc2cc(O)c(O)c(O)c12` [5,6,7-Trihydroxyflavone/bacalein, 5,6,7-trihydroxyflavone], the “AE (×10^−3)” value is on record as 27.78 ×10^−3 and the TEC50 turned out to be 360 min.
For `O=c1cc(-c2ccc(O)c(O)c2)oc2c(O)c(O)ccc12` [7,8,3′,4′-Tetrahydroxyflavone, 7,8,3′,4′-tetrahydroxyflavone], in that order: 18.52 ×10^−3 and 600 min.
For `O=C1c2c(O)cc(O)cc2OC(c2ccc(O)c(O)c2)C1O` (stereo not shown) [3,5,7,3′,4′-Pentahydroxyflavanone], the “AE (×10^−3)” value is on record as 5.53 ×10^−3 and the TEC50 worked out at 1200 min.
Taken in the same sequence, the figures for `COc1cc(/C=C/C(=O)O)ccc1O` [Ferulic acid] were 4.9 ×10^−3 and 600 min.
For `O=c1c(O)c(-c2ccc(O)c(O)c2)oc2cc(O)cc(O)c12` [3,5,7,3′,4′-pentahydroxyflavone], in that order: 18.72 ×10^−3 and 600 min.
For `O=C1O[C@H]([C@@H](O)CO)C(O)=C1O` [Ascorbic acid], in that order: 61.72 ×10^−3 and less than 60 min.
As to `O=c1cc(-c2ccc(O)c(O)c2)oc2ccc(O)cc12` [6,3′,4′-Trihydroxyflavone, 6,3′,4′-trihydroxyflavone], the “AE (×10^−3)” value is reported as 46.30 ×10^−3 and the TEC50 came to 180 min.
Taken in the same sequence, the figures for Tocopherol were 64.1 ×10^−3 and less than 60 min.
